From ChEMBL document CHEMBL1155993, “5-(2-Pyrimidinyl)-imidazo[1,2-a]pyridines are antibacterial agents targeting the ATPase domains of DNA gyrase and topoisomerase IV” (Bioorg Med Chem Lett, 2009)
≈ marks a conversion by molar mass, not a printed value.

Key:
Staphylococcus aureus [1] = experiment: Antibacterial activity against Staphylococcus aureus UC76 by NCCLS method; format: functional, organism-based; details: read-out: MIC
Streptococcus pyogenes = experiment: Antibacterial activity against Streptococcus pyogenes SP1-1 by NCCLS method; format: functional
Streptococcus pneumoniae [2] = experiment: Antibacterial activity against Streptococcus pneumoniae SP-3 by NCCLS method; format: functional
Streptococcus pneumoniae [3] = experiment: Antibacterial activity against fluoroquinolone resistant Streptococcus pneumoniae SP-3765 by NCCLS method; format: functional
DNA gyrase subunit B = DNA gyrase subunit B (Streptococcus pneumoniae serotype 4 (strain ATCC BAA-334 / TIGR4), UniProt P0A4L9); experiment: Inhibition of Streptococcus pneumoniae SP-3 gyrB by enzyme coupled phosphate assay
Sequence of DNA gyrase subunit B (P0A4L9 whole entry): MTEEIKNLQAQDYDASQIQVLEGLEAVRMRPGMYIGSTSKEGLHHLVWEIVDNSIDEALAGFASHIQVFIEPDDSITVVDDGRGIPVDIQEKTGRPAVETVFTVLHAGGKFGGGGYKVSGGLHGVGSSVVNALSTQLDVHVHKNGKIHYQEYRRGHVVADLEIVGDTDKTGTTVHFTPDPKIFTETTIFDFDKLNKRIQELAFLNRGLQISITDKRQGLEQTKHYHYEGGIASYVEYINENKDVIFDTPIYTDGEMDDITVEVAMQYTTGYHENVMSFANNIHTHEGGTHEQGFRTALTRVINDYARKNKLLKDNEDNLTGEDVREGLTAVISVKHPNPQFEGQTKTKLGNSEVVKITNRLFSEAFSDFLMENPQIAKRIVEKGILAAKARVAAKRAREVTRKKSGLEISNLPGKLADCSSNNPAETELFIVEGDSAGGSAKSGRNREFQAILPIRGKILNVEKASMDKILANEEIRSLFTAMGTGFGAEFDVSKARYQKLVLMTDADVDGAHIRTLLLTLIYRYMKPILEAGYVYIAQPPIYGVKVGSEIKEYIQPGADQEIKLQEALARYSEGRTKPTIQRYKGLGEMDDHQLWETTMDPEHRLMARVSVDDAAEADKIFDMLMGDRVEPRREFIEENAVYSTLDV

ParE = target: T1, ParE (Streptococcus pneumoniae, UniProt Q7X1P7); experiment: Inhibition of Streptococcus pneumoniae SP-3 parE after 30 mins
T1 sequence (Q7X1P7 whole entry): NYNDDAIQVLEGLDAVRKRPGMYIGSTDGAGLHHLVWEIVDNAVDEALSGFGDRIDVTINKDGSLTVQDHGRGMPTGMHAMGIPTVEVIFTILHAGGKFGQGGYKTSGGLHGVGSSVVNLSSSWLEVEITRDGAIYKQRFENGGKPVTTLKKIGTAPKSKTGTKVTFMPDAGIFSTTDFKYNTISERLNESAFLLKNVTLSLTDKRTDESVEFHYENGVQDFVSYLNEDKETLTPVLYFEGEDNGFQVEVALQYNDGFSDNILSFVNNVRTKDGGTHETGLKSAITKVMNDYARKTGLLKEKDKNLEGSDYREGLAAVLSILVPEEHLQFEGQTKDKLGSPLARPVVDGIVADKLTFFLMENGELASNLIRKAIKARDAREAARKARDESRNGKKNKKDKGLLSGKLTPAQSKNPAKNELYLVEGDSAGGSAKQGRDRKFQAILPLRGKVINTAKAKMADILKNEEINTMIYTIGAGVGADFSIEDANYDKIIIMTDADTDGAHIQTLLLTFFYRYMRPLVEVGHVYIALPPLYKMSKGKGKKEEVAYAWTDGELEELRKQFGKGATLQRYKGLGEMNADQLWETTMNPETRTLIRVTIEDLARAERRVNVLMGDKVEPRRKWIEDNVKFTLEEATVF

Staphylococcus aureus [4] = experiment: Antibacterial activity against methicillin resistant Staphylococcus aureus SA-1417 by NCCLS method; format: functional

Row | SMILES | MIC (Staphylococcus aureus [1]) [µg/mL] | MIC (Streptococcus pyogenes) [µg/mL] | MIC (Streptococcus pneumoniae [2]) [µg/mL] | MIC (Streptococcus pneumoniae [3]) [µg/mL] | IC50 (DNA gyrase subunit B) [nM] | IC50 (ParE) [nM] | MIC (Staphylococcus aureus [4]) [µg/mL]
1 | CCNC(=O)Nc1cn2c(-c3ncc(C)cn3)cc(-c3ccn(C)c(=O)c3)cc2n1 | 0.5 (≈ 1.24 µM) | 0.125 (≈ 0.31 µM) | 0.06 (≈ 0.149 µM) | 0.06 (≈ 0.149 µM) | – | – | –
2 | CCNC(=O)Nc1cn2c(-c3ncc(C(F)(F)F)cn3)cc(-c3cccnc3)cc2n1 | 1 (≈ 2.34 µM) | 1 (≈ 2.34 µM) | 0.5 (≈ 1.17 µM) | 0.25 (≈ 0.585 µM) | 163 | 367 | 1 (≈ 2.34 µM)
3 | CCC(=O)Nc1cn2c(-c3ncc(C)cn3)cc(-c3cccnc3)cc2n1 | 64 (≈ 179 µM) | 16 (≈ 44.6 µM) | 16 (≈ 44.6 µM) | 16 (≈ 44.6 µM) | 255 | 5000 | > 64
4 | CCNC(=O)Nc1cn2c(-c3ncc(C)cn3)cc(-c3ccc(OC)nc3)cc2n1 | 0.5 (≈ 1.24 µM) | 0.5 (≈ 1.24 µM) | 0.25 (≈ 0.62 µM) | 0.125 (≈ 0.31 µM) | 117 | 147 | 2 (≈ 4.96 µM)
5 | CCNC(=O)Nc1cn2c(-c3nccc(C4CC4)n3)cc(-c3cccnc3)cc2n1 | 0.5 (≈ 1.25 µM) | 1 (≈ 2.5 µM) | 0.125 (≈ 0.313 µM) | 0.25 (≈ 0.626 µM) | 330 | 3750 | 0.5 (≈ 1.25 µM)
6 | CCNC(=O)Nc1cn2c(-c3ncc(C)cn3)cc(-c3cnc(N4CCCC4)nc3)cc2n1 | 0.5 (≈ 1.13 µM) | 0.25 (≈ 0.564 µM) | 0.125 (≈ 0.282 µM) | 0.06 (≈ 0.135 µM) | 244 | 366 | –
7 | CCNC(=O)Nc1cn2c(-c3ncc(Cl)cn3)cc(-c3cccnc3)cc2n1 | 0.25 (≈ 0.635 µM) | 0.125 (≈ 0.317 µM) | 0.06 (≈ 0.152 µM) | 0.03 (≈ 0.0762 µM) | 149 | 419 | 0.25 (≈ 0.635 µM)
8 | CCNC(=O)Nc1cn2c(-c3ncccn3)cc(-c3ccc(C)nc3)cc2n1 | 0.25 (≈ 0.669 µM) | 0.25 (≈ 0.669 µM) | 0.06 (≈ 0.161 µM) | 0.06 (≈ 0.161 µM) | 44 | 119 | –
9 | CCNC(=O)Nc1cn2c(-c3ncc(C)cn3)cc(-c3ccc(C)nc3)cc2n1 | 0.5 (≈ 1.29 µM) | 0.25 (≈ 0.645 µM) | 0.5 (≈ 1.29 µM) | 0.25 (≈ 0.645 µM) | 96 | 373 | 1 (≈ 2.58 µM)
10 | CCNC(=O)Nc1cn2c(-c3ncc(S(C)(=O)=O)cn3)cc(-c3cccnc3)cc2n1 | 64 (≈ 146 µM) | 64 (≈ 146 µM) | 8 (≈ 18.3 µM) | 16 (≈ 36.6 µM) | 433 | 1830 | –
11 | Cc1cnc(-c2cc(-c3cccnc3)cc3nc(NC(=O)NC4CC4)cn23)nc1 | 64 (≈ 166 µM) | 16 (≈ 41.5 µM) | 1 (≈ 2.59 µM) | 0.25 (≈ 0.649 µM) | 295 | 571 | > 64
12 | CCNC(=O)Nc1cn2c(-c3ncc(C(C)C)cn3)cc(-c3cccnc3)cc2n1 | 1 (≈ 2.49 µM) | 0.5 (≈ 1.25 µM) | 0.25 (≈ 0.623 µM) | 0.25 (≈ 0.623 µM) | 1910 | 1380 | –
13 | CCNC(=O)Nc1cn2c(-c3ncc(C)cn3)cc(-c3cnc(N(C)C)nc3)cc2n1 | 1 (≈ 2.4 µM) | 0.5 (≈ 1.2 µM) | 0.25 (≈ 0.599 µM) | 0.125 (≈ 0.299 µM) | 524 | 1380 | 4 (≈ 9.58 µM)
14 | CCNC(=O)Nc1cn2c(-c3ncccn3)cc(-c3cnc(N(C)C)nc3)cc2n1 | 1 (≈ 2.48 µM) | 0.25 (≈ 0.62 µM) | 0.125 (≈ 0.31 µM) | 0.125 (≈ 0.31 µM) | 137 | 611 | –
15 | CNC(=O)Nc1cn2c(-c3ncc(C)cn3)cc(-c3cccnc3)cc2n1 | 4 (≈ 11.1 µM) | 2 (≈ 5.56 µM) | 1 (≈ 2.78 µM) | 0.25 (≈ 0.696 µM) | 92 | 629 | –
16 | CCOC(=O)Nc1cn2c(-c3nccc(C)n3)cc(-c3cnc(N(C)C)nc3)cc2n1 | 64 (≈ 153 µM) | 0.25 (≈ 0.597 µM) | 0.5 (≈ 1.19 µM) | 0.125 (≈ 0.299 µM) | 1380 | 6220 | –
17 | CCNC(=O)Nc1cn2c(-c3nccc(C)n3)cc(-c3cnc(N(C)C)nc3)cc2n1 | 0.5 (≈ 1.2 µM) | 0.25 (≈ 0.599 µM) | 0.25 (≈ 0.599 µM) | 0.125 (≈ 0.299 µM) | 113 | 424 | –
18 | Cc1cnc(-c2cc(-c3cccnc3)cc3nc(NC(=O)N(C)C(F)(F)F)cn23)nc1 | 8 (≈ 18.7 µM) | 16 (≈ 37.4 µM) | 0.25 (≈ 0.585 µM) | 0.125 (≈ 0.292 µM) | 368 | 504 | 4 (≈ 9.36 µM)
19 | CCNC(=O)Nc1cn2c(-c3ncc(CC)cn3)cc(-c3cccnc3)cc2n1 | 0.25 (≈ 0.645 µM) | 0.125 (≈ 0.323 µM) | 0.06 (≈ 0.155 µM) | 0.06 (≈ 0.155 µM) | 353 | 265 | 1 (≈ 2.58 µM)
20 | CCCCNC(=O)Nc1cn2c(-c3ncc(C)cn3)cc(-c3cccnc3)cc2n1 | 8 (≈ 19.9 µM) | 2 (≈ 4.98 µM) | 2 (≈ 4.98 µM) | 0.125 (≈ 0.311 µM) | 261 | 4750 | –
21 | CCNC(=O)Nc1cn2c(-c3nc(C)cc(C)n3)cc(-c3cccnc3)cc2n1 | 1 (≈ 2.58 µM) | 1 (≈ 2.58 µM) | 0.5 (≈ 1.29 µM) | 0.5 (≈ 1.29 µM) | 198 | 541 | 4 (≈ 10.3 µM)
22 | CCNC(=O)Nc1cn2c(-c3ncccn3)cc(-c3cncnc3)cc2n1 | 0.5 (≈ 1.39 µM) | 0.5 (≈ 1.39 µM) | 0.125 (≈ 0.347 µM) | 0.125 (≈ 0.347 µM) | 75 | 280 | –
23 | CCNC(=O)Nc1cn2c(-c3ncc(C)cn3)cc(-c3cncnc3)cc2n1 | 0.25 (≈ 0.668 µM) | 0.5 (≈ 1.34 µM) | 0.25 (≈ 0.668 µM) | 0.06 (≈ 0.16 µM) | 36 | 258 | 1 (≈ 2.67 µM)
24 | CCNC(=O)Nc1cn2c(-c3nc(C)cc(C(F)(F)F)n3)cc(-c3cccnc3)cc2n1 | 0.5 (≈ 1.13 µM) | 0.5 (≈ 1.13 µM) | 0.25 (≈ 0.566 µM) | 0.125 (≈ 0.283 µM) | 216 | 546 | 1 (≈ 2.27 µM)
25 | CCNC(=O)Nc1cn2c(-c3nc(C(F)(F)F)cc(C(F)(F)F)n3)cc(-c3cccnc3)cc2n1 | 2 (≈ 4.04 µM) | 1 (≈ 2.02 µM) | 0.25 (≈ 0.505 µM) | 0.125 (≈ 0.252 µM) | 242 | 745 | 4 (≈ 8.07 µM)
26 | CCNC(=O)Nc1cn2c(-c3ncc(F)cn3)cc(-c3cccnc3)cc2n1 | 1 (≈ 2.65 µM) | 0.5 (≈ 1.32 µM) | 0.125 (≈ 0.331 µM) | 0.125 (≈ 0.331 µM) | 56 | 364 | –
27 | CCNC(=O)Nc1cn2c(-c3nccc(C(=O)OC)n3)cc(-c3cccnc3)cc2n1 | 8 (≈ 19.2 µM) | 32 (≈ 76.7 µM) | 16 (≈ 38.3 µM) | 16 (≈ 38.3 µM) | 52 | 911 | 8 (≈ 19.2 µM)
